Pest or weed control and inhibition data for eleven compounds are collected here from patent US9770026B2, “Substituted pyrimidine compound and uses thereof” (Shenyang Sinochem Agrochemicals R&D Co., Ltd., priority 2012, dated 2017).

In one assay the test system is wheat powdery mildew. Put plainly: protectant activity in vivo against wheat powdery mildew. As to conditions: Triticum aestivum, 168 h, protectant activity; for pest or weed control at 6.25 µg/mL: read-out: control effect against wheat powdery mildew (%), 6.25 mg/L; for pest or weed control at 25 µg/mL: read-out: control effect against wheat powdery mildew (%), 25 mg/L; for pest or weed control at 100 µg/mL: read-out: control effect against wheat powdery mildew (%), 100 mg/L; for pest or weed control at 400 µg/mL: read-out: control effect against wheat powdery mildew (%), 400 mg/L.

Another assay deals with carmine spider mite. Briefly: bioactivity test against carmine spider mite, airbrush spray. Type of assay: in vivo. The following applies: Tetranychus cinnabarinus, 72 h, contrastive test, read-out: Insecticidal activity against carmine spider mite (% ); for pest or weed control at 600 µg/mL: 600 mg/L. In outline:
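Broadbean seedlings infested with adult mites were sprayed with compound (acetone/methanol stock diluted in 0.1% Tween 80 water) by airbrush at 0.7 kg/cm^2, 0.5 ml. Three replicates were run. Mortality was scored after 72 hrs.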

A further assay has as its system cucumber downy mildew. Briefly: protectant activity in vivo against cucumber downy mildew. As to conditions: Cucumis sativus, 168 h, protectant activity; for pest or weed control at 25 µg/mL: read-out: control effect against cucumber downy mildew (%), 25 mg/L; for pest or weed control at 50 µg/mL: read-out: control effect against cucumber downy mildew (%), 50 mg/L; for pest or weed control at 100 µg/mL: read-out: control effect against cucumber downy mildew (%), 100 mg/L; for pest or weed control at 400 µg/mL: read-out: control effect against cucumber downy mildew (%), 400 mg/L.

The test system of assay [1] is Green peach aphids (Myzus Persicae Sulzer). Put plainly: bioactivity test against green peach aphid, airbrush foliar spray. The format is in vivo. As to conditions: Myzus persicae, foliar, 48 h, contrastive test, read-out: Insecticidal activity against peach aphid (%); for pest or weed control at 10 µg/mL: 10 mg/L; for pest or weed control at 100 µg/mL: 100 mg/L; for pest or weed control at 600 µg/mL: 600 mg/L. In outline: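 Aphids (15-30 per cabbage leaf disc) on moist filter paper were airbrush-sprayed at 10 psi, 0.5 mL, with compound from acetone:methanol (1:1) diluted in water with 0.1% tween 80. Held at 25±1 C, 60±5% RH; survivors counted after 48 hrs to give death rates.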

Another assay relates to corn rust. Put plainly: protectant activity in vivo against corn rust. The following applies: Zea mays, 168 h, protectant activity; for pest or weed control at 400 µg/mL: read-out: control effect against corn rust (%), 400 mg/L; for pest or weed control at 6.25 µg/mL: read-out: control effect against corn rust (%), 6.25 mg/L; for pest or weed control at 25 µg/mL: read-out: control effect against corn rust (%), 25 mg/L; for pest or weed control at 100 µg/mL: read-out: control effect against corn rust (%), 100 mg/L.

The subject of a further assay is cucumber gray mold. Put plainly: fungicidal activity in vitro (inhibition rate) against cucumber gray mold. Type of assay: cell-based. The following applies: 25 ppm, in vitro; read-out: inhibition rate against cucumber gray mold.
For a further assay, the system named is armyworm. Briefly: bioactivity test against armyworm, airbrush spray. The format is in vivo. As to conditions: 72 h, 600 mg/L; read-out: Insecticidal activity against armyworm (%).
In a further assay the test system is Diamond back moth. Briefly: insecticidal activity against diamond back moth, airbrush spray. The format is in vivo. The following applies: 72 h, 600 mg/L. In outline: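 Airbrush leaf-disc spray test: both faces of 2 cm cabbage discs received 0.5 ml of test solution at 0.7 kg/cm^2. Solutions were made in acetone:methanol (1:1) and brought to concentration with 0.1% Tween 80 in water. Ten second-instar larvae per disc, triplicates, were held at 25° C and 60˜70% R.H., with mortality recorded at 72 hrs.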

Where only a bound is given, the exact number is not on record here.

With `Cc1ncnc(NCc2ccc(Oc3ccc(C(F)(F)F)cc3)cc2)c1Cl` [CK53, reference compound], the pest or weed control at 6.25 µg/mL in the assay on wheat powdery mildew worked out at 0%. For the same compound, the pest or weed control at 25 µg/mL in the assay with wheat powdery mildew stood at 0%; in the assay on cucumber downy mildew, 60%. In addition, the pest or weed control at 100 µg/mL with wheat powdery mildew is 80%; in the assay on carmine spider mite (100 mg/L), 100%; in the assay with cucumber downy mildew, 90%; in assay [1], 66%. Besides, the pest or weed control at 400 µg/mL was 100% in the assay with wheat powdery mildew, 100% in the assay with cucumber downy mildew and 0% with corn rust. The pest or weed control at 10 µg/mL stood at 12% in the assay on carmine spider mite (10 mg/L) and 34% in assay [1]. In addition, the pest or weed control at 600 µg/mL with carmine spider mite was determined as 100%; in assay [1], 84%; in the assay on armyworm, 0%; in the assay on Diamond back moth it was 0%. In addition, the pest or weed control at 50 µg/mL in the assay on cucumber downy mildew was 85%. Besides, the inhibition (usually how much of the control response was suppressed) at 25 ppm in the assay on cucumber gray mold amounted to 0%.

Consider `CCc1ncnc(NC(=O)Cc2ccc(Oc3ccc(C(F)(F)F)cc3Cl)cc2)c1Cl` [CK57, reference compound], for which the pest or weed control at 400 µg/mL came to 0% in the assay on wheat powdery mildew, 50% with cucumber downy mildew and 0% with corn rust. Further, the pest or weed control at 600 µg/mL with carmine spider mite came to 33%; in assay [1], 61%; with armyworm, 0%; with Diamond back moth, 0%. In addition, the inhibition at 25 ppm in the assay on cucumber gray mold is under 50%.

`Cc1nc(Cl)cc(NCCc2ccc(Oc3ccc(C(F)(F)F)cn3)cc2)n1` [CK67, reference compound]: the pest or weed control at 400 µg/mL turned out to be 0% with wheat powdery mildew, 100% with cucumber downy mildew and 0% in the assay with corn rust. Also, the pest or weed control at 600 µg/mL in the assay on carmine spider mite came to 61%; in assay [1] it was 86%; in the assay on armyworm, 0%; in the assay on Diamond back moth it was 14%. Besides, the pest or weed control at 25 µg/mL in the assay on cucumber downy mildew came to 0%. In the assay on cucumber downy mildew, the pest or weed control at 50 µg/mL stood at 20%. Further, the pest or weed control at 100 µg/mL in the assay on cucumber downy mildew stood at 60%; in assay [1], 54%. The pest or weed control at 10 µg/mL in assay [1] was 0%. For the same compound, in the assay on cucumber gray mold, the inhibition at 25 ppm amounted to 0%.

Consider `Cc1nc(Cl)cc(NCCc2ccc(Oc3ncc(C(F)(F)F)cc3Cl)cc2)n1` [CK68, reference compound], for which the pest or weed control at 400 µg/mL with wheat powdery mildew, in the assay with cucumber downy mildew and with corn rust was 0% each time. Moreover, the pest or weed control at 600 µg/mL with carmine spider mite is 4%; in assay [1] it was 0%; in the assay with armyworm, 0%; in the assay on Diamond back moth it was 14%. Further, the inhibition at 25 ppm in the assay on cucumber gray mold came to 0%.

Take `FC(F)(F)c1cnc(Oc2ccc(CCNc3cc(Cl)ncn3)cc2)c(Cl)c1` [CK70, reference compound]: in the assay with wheat powdery mildew, the pest or weed control at 6.25 µg/mL turned out to be 0%, the pest or weed control at 25 µg/mL turned out to be 0%, the pest or weed control at 100 µg/mL was determined as 0% and the pest or weed control at 400 µg/mL amounted to 98%. For the same compound, in the assay on carmine spider mite, the pest or weed control at 600 µg/mL was found to be 13%. Also, in the assay with cucumber downy mildew, the pest or weed control at 25 µg/mL was 0%, the pest or weed control at 50 µg/mL turned out to be 30%, the pest or weed control at 100 µg/mL came to 60% and the pest or weed control at 400 µg/mL stood at 100%. Besides, in assay [1], the pest or weed control at 10 µg/mL is 0%, the pest or weed control at 100 µg/mL stood at 0% and the pest or weed control at 600 µg/mL was determined as 81%. In the assay on corn rust, the pest or weed control at 6.25 µg/mL stood at 0%, the pest or weed control at 25 µg/mL came to 10%, the pest or weed control at 100 µg/mL worked out at 30% and the pest or weed control at 400 µg/mL stood at 100%. Besides, the inhibition at 25 ppm in the assay with cucumber gray mold was 0%. The pest or weed control at 600 µg/mL in the assay on armyworm amounted to 0%. Also, the pest or weed control at 600 µg/mL with Diamond back moth stood at 0%.

Take `CCOC(=O)c1ccc(Oc2ccc(CCNc3cc(Cl)ncn3)cc2)nc1` [CK74, reference compound]: the pest or weed control at 400 µg/mL with wheat powdery mildew stood at 0%; with cucumber downy mildew it was 50%; with corn rust, 100%. Moreover, the pest or weed control at 600 µg/mL with carmine spider mite came to 0%; in assay [1], 100%; in the assay with armyworm it was 0%; with Diamond back moth it was 0%. Also, in assay [1], the pest or weed control at 10 µg/mL was determined as 26%. Besides, the pest or weed control at 100 µg/mL (in assay [1]; in the assay with corn rust) was 100% in each case. In the assay with corn rust, the pest or weed control at 6.25 µg/mL amounted to 85%. In addition, the pest or weed control at 25 µg/mL with corn rust is 90%. Moreover, the inhibition at 25 ppm in the assay on cucumber gray mold was 0%.

Turning to `CCOC(=O)c1ccc(Oc2ccc(CCNc3nc(Cl)ncc3Cl)cc2)nc1` [CK75, reference compound], the pest or weed control at 400 µg/mL in the assay with wheat powdery mildew worked out at 0%; in the assay on cucumber downy mildew, 60%; in the assay with corn rust, 0%. For the same compound, the pest or weed control at 600 µg/mL turned out to be 0% with carmine spider mite, 100% in assay [1], 0% with armyworm and 0% in the assay on Diamond back moth. In addition, in assay [1], the pest or weed control at 10 µg/mL stood at 0%. Further, the pest or weed control at 100 µg/mL in assay [1] turned out to be 0%. The inhibition at 25 ppm with cucumber gray mold came to 0%.

With `CCOC(=O)c1ccc(Oc2ccc(CCNc3cc(Cl)nc(C)n3)cc2)nc1` [CK76, reference compound], the pest or weed control at 400 µg/mL in the assay on wheat powdery mildew turned out to be 75%; in the assay with cucumber downy mildew, 0%; in the assay with corn rust, 70%. Also, the pest or weed control at 600 µg/mL worked out at 41% with carmine spider mite, 52% in assay [1], 0% in the assay with armyworm and 0% in the assay on Diamond back moth. The inhibition at 25 ppm in the assay with cucumber gray mold was 0%.

For the compound `COC(=O)c1ccc(Oc2ccc(CCNc3cc(Cl)ncn3)cc2)nc1` [CK77, reference compound], the pest or weed control at 6.25 µg/mL with wheat powdery mildew was determined as 70%; with corn rust it was 0%. Besides, the pest or weed control at 25 µg/mL in the assay on wheat powdery mildew was 80%; in the assay with corn rust, 40%. For the same compound, the pest or weed control at 100 µg/mL in the assay with wheat powdery mildew was 100%; with corn rust, 60%. In addition, the results for the pest or weed control at 400 µg/mL in the assay with wheat powdery mildew, in the assay on cucumber downy mildew and in the assay with corn rust were 100%, 0% and 100%, respectively. The pest or weed control at 600 µg/mL with carmine spider mite was determined as 56%; in assay [1], 72%; in the assay with armyworm it was 0%; in the assay on Diamond back moth, 0%. The inhibition at 25 ppm in the assay with cucumber gray mold came out at 0%.

Take `COC(=O)c1ccc(Oc2ccc(CCNc3nc(Cl)ncc3Cl)cc2)nc1` [CK78, reference compound]: the pest or weed control at 400 µg/mL in the assay with wheat powdery mildew, in the assay on cucumber downy mildew and in the assay with corn rust was 0% in each case. In addition, the pest or weed control at 600 µg/mL with carmine spider mite was 17%; in assay [1], 0%; with armyworm, 0%; in the assay on Diamond back moth, 0%. Also, the inhibition at 25 ppm in the assay with cucumber gray mold stood at 0%.

On to `COC(=O)c1ccc(Oc2ccc(CCNc3cc(Cl)nc(C)n3)cc2)nc1` [CK79, reference compound], for which the pest or weed control at 400 µg/mL in the assay on wheat powdery mildew was determined as 0%; with cucumber downy mildew, 85%; with corn rust, 0%. Also, the pest or weed control at 600 µg/mL was found to be 27% in the assay with carmine spider mite, 100% in assay [1], 0% with armyworm and 0% in the assay on Diamond back moth. The pest or weed control at 10 µg/mL in assay [1] was found to be 0%. Further, the pest or weed control at 100 µg/mL in assay [1] worked out at 16%. For the same compound, in the assay with cucumber gray mold, the inhibition at 25 ppm worked out at 0%.
